Converted amounts (≈) assume the structure as drawn.

The solubility is how much of the substance goes into solution per volume.

One series in a line: physchem. Conditions: 22 °C, organic solvent or mixture, thermodynamic from solid, Solubility in mg/ml. The protocol:
100 μl n-butanol was added and the dispersion was stirred at ˜300 to 500 rpm by a magnetic stirrer at 21-23° C. n-Butanol was added 10 μl wise.
100 μl water saturated n-butanol (achieved from example 4) was added and the dispersion was stirred at ˜300 to 500 rpm by a magnetic stirrer at 21-23° C. n-Butanol was added 10 μl wise.
100 μl 25% aqueous NaCl solution saturated n-butanol (achieved from example 6) was added and the dispersion was stirred at ˜300 to 500 rpm by a magnetic stirrer at 21-23° C. n-Butanol was added 10 μl wise.
31.35 mg efavirenz (Angene Intemational Limited, China) was weighed into a 10 ml glass vial containing a 1 cm magnetic bar. 50 μl n-butanol was added and the dispersion was stirred at ˜300 to 500 rpm by a magnetic stirrer at 21-23° C. n-Butanol was added 10 μl wise.
30.57 mg efavirenz was weighed into a 10 ml glass vial containing a 1 cm magnetic bar. 50 μl water saturated n-butanol (achieved from example 4) was added and the dispersion was stirred at ˜300 to 500 rpm by a magnetic stirrer at 21-23° C. Water saturated n-butanol was added 10 μl wise till 250 μl. After 250 μl, 25 μl wise addition was used.
31.35 mg efavirenz was weighed into a 10 ml glass vial containing a 1 cm magnetic bar. 50 μl 25% aqueous NaCl solution saturated n-butanol (achieved from example 6) was added and the dispersion was stirred at ˜300 to 500 rpm by a magnetic stirrer at 21-23° C. […]

A short description of series [1]: Telmisartan release profile, dissolution test using USP II dissolution tester, acetate buffer pH 4.0, 2 h. Type of series: physicochemical. Conditions: acetate buffer pH 4.0, USP II. Here is the method:
FIG. 2), Telmisartan release profile was analyzed by a dissolution test using a USP II dissolution tester (ERWEKA GmbH, Langen, Germany) at pH 4.0 acetate buffer for 2 h (shown in […]

Take `Cc1ccc(-c2cc(C(F)(F)F)nn2-c2ccc(S(N)(=O)=O)cc2)cc1` [Celecoxib, celecoxib]: the solubility in “physchem” came to 22 mg/mL (≈ 57.7 mM).

For the compound `CCCc1nc2c(C)cc(-c3nc4ccccc4n3C)cc2n1Cc1ccc(-c2ccccc2C(=O)O)cc1` [Telmisartan pure active, Telmisartan], the “Release of Telmisartan” value in series [1] (time 0 min) came out at 0.040%; in series [1] (time 5 min) it was 0.081%; in series [1] (time 10 min) it was 0.148%; in series [1] (time 15 min), 0.185%; in series [1] (time 30 min), 0.240%; in series [1] (time 45 min) it was 0.613%. For the same compound, the figures for the “Release of Telmisartan” value in series [1] (time 60 min), in series [1] (time 90 min) and in series [1] (time 120 min) were 0.310%, 0.671% and 0.343%, respectively.
